How the values were obtained:
PknGΔTPRΔ73 mutant I292G = PknGΔTPRΔ73 mutant I292G (Mycobacterium tuberculosis, UniProt P9WI73, I292G); type: binding; conditions: 100 µM
PknGΔTPRΔ73 mutant Y234L = PknGΔTPRΔ73 mutant Y234L (Mycobacterium tuberculosis, UniProt P9WI73, Y234L); type: binding; conditions: 100 µM
PknGΔTPRΔ73 mutant V235P = PknGΔTPRΔ73 mutant V235P (Mycobacterium tuberculosis, UniProt P9WI73, V235P); type: binding; conditions: 100 µM
[1] = molecular target: full-length PknG with natural substrate GarA (Mycobacterium tuberculosis, UniProt P9WI73); assay: Kinase Glo Plus luminescent end point inhibition assay; type: biochemical; conditions: tethered docking compounds assayed at 40 μM

Compound | shift in the melting temperature (PknGΔTPRΔ73 mutant I292G) | shift in the melting temperature (PknGΔTPRΔ73 mutant Y234L) | shift in the melting temperature (PknGΔTPRΔ73 mutant V235P) | kinase activity [1]
NC(=O)c1c(N)c(C(=O)c2ccc(F)cc2)n2ccccc12 [B1] | no shift | no shift | no shift | 
CC(C)c1ccc(C(=O)c2c(N)c(C(N)=O)c3ccccn23)cc1 [T1] |  |  |  | considerably diminished kinase activity
NC(=O)c1c(NC(=O)NCC2CCCO2)sc2c1CCCC2 (stereo not drawn) [T2] |  |  |  | considerably diminished kinase activity
CCN1CCCC1CNC(=O)Nc1sc2c(c1C(N)=O)CCCC2 (stereo not drawn) [T3] |  |  |  | considerably diminished kinase activity

Reference: publication PMC9344462 (Journal of Medicinal Chemistry, 2022)
